Measured values taken from patent US8871815B2, “Therapeutic compounds” (Signature Therapeutics, Inc., priority 2007, dated 2014).
Read-outs that look alike come from different tables or passages of the source.

Legend:
pigs = experiment: Hemodynamic effects, arterial blood gas and serum chemistry in pigs, IV infusion; assay type: in vivo, pig; parameters: ABEc (acid base excess, corrected) / Glucose / Lactate: unit not given here; conditions: for ABEc (acid base excess, corrected) / Glucose / Lactate / Potassium / pC02 / pH / pO2: arterial blood, 0.384 mg/kg/min x 20 min IV
Description: Anesthesia was induced with isoflurane. Intravascular access was obtained from an ear vein. Each pig was intubated and mechanically ventilated.
ECG was monitored throughout the study. […] Body temperature was maintained at 37° C.
Arterial blood gas samples from pigs infused with Compound 1 were taken and analyzed for blood gas and serum chemistry values; mean values are reported in Table 4.

[1] = Pharmacokinetic study in domestic pigs, IV infusion; assay type: in vivo, pig
ferrets = experiment: Pro-emetic activity in ferrets; assay type: in vivo, ferret; conditions: 15 min IV infusion at 1 mg/kg/min, administered alone, 6 ferrets, 45 min
From the text: Immediately prior to dosing, food and water were removed.

Beagle dogs = conditions: dogs

SMILES: CC[C@@H](C)c1cccc([C@H](C)CC)c1O [Compound 1]
- metabolic alterations such as metabolic acidosis or increased lactate (pigs; IV infusion, pigs): did not produce any significant metabolic alterations
- reduction of cardiac output compared to propofol (pigs; IV infusion, pigs): no significant difference
- lowest HR measured (pigs; IV infusion, pigs (Compound 1 0.384, propofol 0.750 mg/kg/min)): 129±6 bpm
- MAP (mean arterial pressure) (pigs; IV infusion, pigs (Compound 1 0.384, propofol 0.750 mg/kg/min), FIG. 1 in mm Hg): 106±3
- ABEc (acid base excess, corrected) (pigs; pigs, Min 0): 5.6
- Glucose (pigs; pigs, Min 0): 99.6
- Lactate (pigs; pigs, Min 0): 1.43
- Potassium (pigs; pigs, Min 0): 3.80
- pC02 (pigs; pigs, Min 0): 38.8
- pH (pigs; pigs, Min 0): 7.4861
- pO2 (pigs; pigs, Min 0): 390
- ABEc (acid base excess, corrected) (pigs; pigs, Min 4): 5.8
- Glucose (pigs; pigs, Min 4): 102.9
- Lactate (pigs; pigs, Min 4): 1.24
- Potassium (pigs; pigs, Min 4): 3.71
- pC02 (pigs; pigs, Min 4): 37.2
- pH (pigs; pigs, Min 4): 7.5027
- pO2 (pigs; pigs, Min 4): 410
- ABEc (acid base excess, corrected) (pigs; pigs, Min 20): 5.7
- Glucose (pigs; pigs, Min 20): 102.0
- Lactate (pigs; pigs, Min 20): 1.20
- Potassium (pigs; pigs, Min 20): 3.84
- pC02 (pigs; pigs, Min 20): 36.8
- pH (pigs; pigs, Min 20): 7.5066
- pO2 (pigs; pigs, Min 20): 419
- ABEc (acid base excess, corrected) (pigs; pigs, Min 80): 5.4
- Glucose (pigs; pigs, Min 80): 99.7
- Lactate (pigs; pigs, Min 80): 1.01
- Potassium (pigs; pigs, Min 80): 4.00
- pC02 (pigs; pigs, Min 80): 37.5
- pH (pigs; pigs, Min 80): 7.4943
- pO2 (pigs; pigs, Min 80): 402
- ABEc (acid base excess, corrected) (pigs; pigs, Min 140): 4.1
- Glucose (pigs; pigs, Min 140): 100.7
- Lactate (pigs; pigs, Min 140): 0.95
- Potassium (pigs; pigs, Min 140): 4.10
- pC02 (pigs; pigs, Min 140): 37.2
- pH (pigs; pigs, Min 140): 7.4803
- pO2 (pigs; pigs, Min 140): 399
- ABEc (acid base excess, corrected) (pigs; pigs, Min 200): 3.2
- Glucose (pigs; pigs, Min 200): 102.4
- Lactate (pigs; pigs, Min 200): 0.96
- Potassium (pigs; pigs, Min 200): 4.06
- pC02 (pigs; pigs, Min 200): 37.6
- pH (pigs; pigs, Min 200): 7.4641
- pO2 (pigs; pigs, Min 200): 356
- Clearance ([1]; pig, IV infusion): exceeded estimated hepatic blood flow
- metabolic pathway ([1]; pigs): glucuronidation in the 1-position with the 4-position being subject to hydroxylation followed by glucuronide and sulfate conjugation
- episodes of vomiting or retching (ferrets): did not produce any episodes of vomiting or retching
- duration of anesthesia (sleep time) (Beagle dogs; 5 mg/kg bolus IV): 24 min
- duration of anesthesia (sleep time) (Beagle dogs; 10 mg/kg bolus IV): 43 min
- duration of anesthesia (sleep time) (Beagle dogs; 15 mg/kg bolus IV): 77 min
- duration of anesthesia (sleep time) (Beagle dogs; 30 mg/kg bolus IV): 105 min
